Consider one compound from ChEMBL document CHEMBL5728681, “Macrocyclic compounds as TRK kinase inhibitors and uses thereof” (2021).

The IC50 is the point on the concentration scale where inhibition reaches its midpoint.

This experiment addresses High affinity nerve growth factor receptor (Homo sapiens, UniProt P04629). The experiment in a line: HotSpot Assay: The HotSpot assay platform was used to measure kinase/inhibitor interactions as described in Anastassiadis et al., Nat Biotechnol. 29:1039-45, 2011. In brief, for each reaction, kinase and substrate were mixed in a buffer containing 20 mM HEPES (pH 7.5), 10 mM MgCl2, 1 mM EGTA, 0.02% Brij35, 0.02 mg/mL BSA, 0.1 mM Na3VO4, 2 mM DTT, and 1% DMSO. Compounds were then added to each reaction mixture. After a 20-min incubation, ATP (Sigma-Aldrich) and [γ-33P] ATP (PerkinElmer) were added at a final total concentration of 100 μM. Reactions were carried out at room temperature for 2 h and spotted onto P81 ion exchange cellulose chromatography paper (Whatman). Filter paper was washed in 0.75% phosphoric acid to remove unincorporated ATP. The percent remaining kinase activity relative to a vehicle-containing (DMSO) kinase reaction was calculated for each kinase/inhibitor pair.

High affinity nerve growth factor receptor, sequence (P04629 whole entry): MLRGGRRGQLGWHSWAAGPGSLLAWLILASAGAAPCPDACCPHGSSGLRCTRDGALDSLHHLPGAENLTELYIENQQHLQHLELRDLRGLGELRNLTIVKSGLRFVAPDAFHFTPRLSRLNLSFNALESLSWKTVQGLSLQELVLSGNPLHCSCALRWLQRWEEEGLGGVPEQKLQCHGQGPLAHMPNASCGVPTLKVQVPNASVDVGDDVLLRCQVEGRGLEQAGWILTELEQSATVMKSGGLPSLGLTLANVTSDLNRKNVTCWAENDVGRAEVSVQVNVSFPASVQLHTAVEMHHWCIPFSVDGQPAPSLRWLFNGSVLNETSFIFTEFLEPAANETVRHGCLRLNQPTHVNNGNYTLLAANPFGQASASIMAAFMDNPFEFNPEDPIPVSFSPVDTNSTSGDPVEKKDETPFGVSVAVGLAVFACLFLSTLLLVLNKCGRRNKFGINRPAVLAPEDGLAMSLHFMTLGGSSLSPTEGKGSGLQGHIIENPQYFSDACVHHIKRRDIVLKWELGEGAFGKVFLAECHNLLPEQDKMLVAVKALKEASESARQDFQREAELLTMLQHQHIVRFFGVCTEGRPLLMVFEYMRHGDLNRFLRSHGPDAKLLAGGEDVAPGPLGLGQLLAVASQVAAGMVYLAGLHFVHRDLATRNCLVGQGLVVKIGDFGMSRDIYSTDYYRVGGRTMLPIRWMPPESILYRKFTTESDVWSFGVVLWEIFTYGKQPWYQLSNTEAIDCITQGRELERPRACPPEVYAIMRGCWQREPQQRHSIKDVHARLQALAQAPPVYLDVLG

`C=C1c2ncc(F)cc2[C@H]2CCCN2c2ccn3ncc(c3n2)C(=O)N[C@@H]1C`: the IC50 was < 0.1 µM.
